Laboratory results reported in patent US20250257075A1, “MACROCYCLIC INHIBITORS OF KRAS FOR THE TREATMENT OF CANCER” (Hoffmann-La Roche Inc., priority 2022, published 2025).

How the values were obtained:
[1] = GSH Reaction Rates (inherent GSH reactivity); assay type: in vitro ADME; details: for T½(hour) in GSH: pH 7.4, up to 6 h
Source text: Glutathione (GSH) is a tripeptide found in most of the tissues, especially in high concentrations in the liver, and plays critical roles in protecting cells from oxidative damage and the toxicity of xenobiotic electrophiles, and maintaining redox homeostasis. More specifically, glutathione conjugation helps contribute to detoxification by binding electrophiles that could otherwise bind to proteins or nucleic acids, resulting in cellular damage and genetic mutations.
Many potentially toxic electrophilic xenobiotics and some endogenous compounds are detoxified by conversion to the corresponding glutathione S-conjugate, which consumes inherent GSH and then diminishes detoxification effects. Some drugs and halogenated workplace/environmental contaminants are bioactivated by this mechanism.
Therefore Strategy to minimize the GSH metabolism is very critical. Short T1/2 in inherent GSH reaction indicated high GSH reaction rate. Thus T1/2 in inherent GSH reaction assay was determined for the screening of candidates.
Reference compounds and compounds of this invention potentially could form conjugation with GSH either through halogenated moieties substitution reaction or direct Michael addition reaction. This test was therefore performed to check GSH reactivity of listed compounds.
For inherent GSH reactivity determination, compounds at 1 μM were incubated at 37° C. with and without 5 mM GSH for 0, 0.5, 1, 2, 4 and 6 h in 100 mM potassium phosphate buffer at pH 7.4. At the end of the designated time points, samples were quenched with acetonitrile containing 10 mM N-ethylmaleimide and an internal standard. Quenched samples were centrifuged, and supernatants were analyzed by LC-MS/MS for compound quantification.

[2] = test system: NCI-H358 cells (KRAS G12C); experiment: Cell viability assay, G12C; assay type: cell-based, human; details: Homo sapiens; NCI-H358, 72 hrs, Cell Counting Kit-8
Procedure, shortened: (§1)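 Read-out is CCK-8 absorbance (OD450 minus OD650, 2 hrs after reagent), reflecting NADPH after 72 hrs of compound exposure in 0.5% DMSO. Seeding density was 5,000 cells/well for NCI-H358 and 2,000 for AGS and SW620. IC50 derived by 4-parameter sigmoidal fitting.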

AGS cells (KRAS G12D) = experiment: Cell viability assay, G12D; assay type: cell-based, human; details: Homo sapiens, 72 hrs, Cell Counting Kit-8
Procedure, shortened: as §1

SW620 cells (KRAS G12V) = experiment: Cell viability assay, G12V; assay type: cell-based, human; details: Homo sapiens, SW-620; SW620, 72 hrs, Cell Counting Kit-8
Procedure, shortened: as §1

[3] = target: KRAS G12D binding to BRAF (Homo sapiens, UniProt P01116+P62937, G12D); experiment: KRAS-BRAF with CYPA (500 nM) interaction assay (TR-FRET), G12D; assay type: biochemical; details: 3 hours
Sequence of KRAS G12D binding to BRAF (P01116 1-188 isoform P01116-2 G12D): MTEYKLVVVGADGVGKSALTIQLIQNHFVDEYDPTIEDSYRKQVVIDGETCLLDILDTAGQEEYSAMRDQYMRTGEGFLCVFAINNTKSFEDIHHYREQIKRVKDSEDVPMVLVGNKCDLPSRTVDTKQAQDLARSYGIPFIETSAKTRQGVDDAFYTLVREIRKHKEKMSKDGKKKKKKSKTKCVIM
Sequence of KRAS G12D binding to BRAF (P62937 whole entry): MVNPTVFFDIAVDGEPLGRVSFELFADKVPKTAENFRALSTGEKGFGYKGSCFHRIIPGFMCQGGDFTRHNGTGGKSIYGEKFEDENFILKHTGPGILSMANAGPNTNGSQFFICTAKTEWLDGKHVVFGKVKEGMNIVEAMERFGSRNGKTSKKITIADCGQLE
Procedure, shortened: (§2)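 TR-FRET (Ex320 nm, Em 665/615 nm) measured compound- or compound-CYPA-dependent disruption of KRAS-BRAF complex, with CYPA at 500 nM. Disruption scored as decrease in TR-FRET ratio versus DMSO control wells.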

[4] = target: KRAS G12V binding to BRAF (Homo sapiens, UniProt P01116+P62937, G12V); experiment: KRAS-BRAF with CYPA (500 nM) interaction assay (TR-FRET), G12V; assay type: biochemical; details: 3 hours
Sequence of KRAS G12V binding to BRAF (P01116 1-188 isoform P01116-2 G12V): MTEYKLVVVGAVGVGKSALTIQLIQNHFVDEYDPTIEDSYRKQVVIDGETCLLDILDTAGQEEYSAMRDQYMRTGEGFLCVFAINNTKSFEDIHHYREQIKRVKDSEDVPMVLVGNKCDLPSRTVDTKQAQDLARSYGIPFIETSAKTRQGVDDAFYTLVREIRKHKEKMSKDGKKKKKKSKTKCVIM
Sequence of KRAS G12V binding to BRAF (P62937 whole entry): as the sequence (P62937 whole entry) above
Procedure, shortened: as §2

[5] = test system: phosphorylation of ERK, KRAS G12C in NCI-H358 cells; experiment: pERK inhibition assay, G12C; assay type: cell-based, human; details: Homo sapiens; NCI-H358, 4 hours of incubation
Procedure, shortened: (§3)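 NCI-H358 (G12C), AGS (G12D) and SW620 (G12V) cells were seeded overnight at 30,000, 20,000 and 30,000 cells/well, respectively. They were then treated 4 h with compound (0.5% DMSO final), fixed, and methanol-permeabilized. pERK was detected by in-cell ELISA (anti-pERK/HRP, TMB, OD450); IC50 from a 4-parameter sigmoidal fit.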

[6] = test system: phosphorylation of ERK, KRAS G12D in AGS cells; experiment: pERK inhibition assay, G12D; assay type: cell-based, human; details: Homo sapiens, 4 hours of incubation
Procedure, shortened: as §3

[7] = 1 μM compound, 5 mM GSH, 37° C., pH 7.4, 6 hr
[8] = 1 μM compound, 5 mM GSH, 37° C.

Remaining at 6 hr in GSH (%) [1, 7] [%]	IC50 [2] [µM]	IC50 (AGS cells (KRAS G12D)) [µM]	IC50 (SW620 cells (KRAS G12V)) [µM]	IC50 [3] [µM]	IC50 [4] [µM]	IC50 [5] [µM]	IC50 [6] [µM]	Remaining at 6 hr in GSH (%) ([1]; 6 h, 1 μM, pH 7.4)	half-life at 1 μM ([1]; pH 7.4) [h]	Structure (SMILES)	T½(hour) in GSH [1, 8]
90	0.019	> 5	> 5	> 10	> 10	0.005	> 10			CCn1c(-c2cc(N3CCN(CC(F)(F)F)CC3)cnc2[C@H](C)OC)c2c3cc(c(F)cc31)-c1csc(n1)C[C@H](NC(=O)[C@H](C(C)C)N(C)C(=O)[C@H]1C[C@@H](C#CC(F)(F)F)C1)C(=O)N1CCC[C@H](N1)C(=O)OCC(C)(C)C2 (atropisomer, axis not shown; (M)) [Example 8, cis-N-[(1S)-1-[[(7S,13S)-21-ethyl-24-fluoro-(20M)-20-[2-[(1S)-1-methoxyethyl]-5-[4-(2,2,2-trifluoroethyl)piperazin-1-yl]-3-pyridyl]-17,17-dimethyl-8,14-dioxo-15-oxa-4-thia-9,21,27,28-tetrazapentacyclo[17.5.2.1^2,5.1^9,13.0^22,26]octacosa-1(25),2,5(28),19,22(26),23-hexaen-7-yl]carbamoyl]-2-methyl-propyl]-N-methyl-3-(3,3,3-trifluoroprop-1-ynyl)cyclobutanecarboxamide]	stable (If % depletion after 6 hour incubation is less than 20%, compounds were reported as stable)
	0.002	> 10	1.37	> 10	> 10	0.011	3.77	94		CCn1c(-c2cc(N3CCOCC3)cnc2[C@H](C)OC)c2c3cc(c(F)cc31)-c1csc(n1)C[C@H](NC(=O)[C@H](C(C)C)N(C)C(=O)[C@H]1C[C@@H](C#CC(F)(F)F)C1)C(=O)N1CCC[C@H](N1)C(=O)OCC(C)(C)C2 (atropisomer, axis not shown; (M)) [Example 11, cis-N-[(1S)-1-[[(7S,13S)-21-ethyl-24-fluoro-(20M)-20-[2-[(1S)-1-methoxyethyl]-5-morpholino-3-pyridyl]-17,17-dimethyl-8,14-dioxo-15-oxa-4-thia-9,21,27,28-tetrazapentacyclo[17.5.2.1^2,5.1^9,13.0^22,26]octacosa-1(25),2,5(28),19,22(26),23-hexaen-7-yl]carbamoyl]-2-methyl-propyl]-N-methyl-3-(3,3,3-trifluoroprop-1-ynyl)cyclobutanecarboxamide]	
	0.011	2.19	0.121	> 10	3.62	0.053		77	28.9	CC#CC(=O)N1CC[C@H](C(=O)N(C)[C@H](C(=O)N[C@H]2Cc3nc(cs3)-c3ccc4c(c3)c(c(-c3cccnc3[C@H](C)OC)n4CC)CC(C)(C)COC(=O)[C@@H]3CCCN(N3)C2=O)C(C)C)C1 [Example A168, reference compound]	
100	0.003	3.57	2.18	> 10	> 10	0.007	0.378			CO[C@@H](C)c1ncc(N2CCN(C)CC2)cc1-c1c2c3cc(c(F)cc3n1CC(F)(F)F)-c1csc(n1)C[C@H](NC(=O)[C@H](C(C)C)N(C)C(=O)[C@H]1C[C@@H](C#CC(F)(F)F)C1)C(=O)N1CCC[C@H](N1)C(=O)OCC(C)(C)C2 (atropisomer, axis not shown; (M)) [Example 3, cis-N-[(1S)-1-[[(7S,13S)-24-fluoro-(20M)-20-[2-[(1S)-1-methoxyethyl]-5-(4-methylpiperazin-1-yl)-3-pyridyl]-17,17-dimethyl-8,14-dioxo-21-(2,2,2-trifluoroethyl)-15-oxa-4-thia-9,21,27,28-tetrazapentacyclo[17.5.2.1^2,5.1^9,13.0^22,26]octacosa-1(25),2,5(28),19,22(26),23-hexaen-7-yl]carbamoyl]-2-methyl-propyl]-N-methyl-3-(3,3,3-trifluoroprop-1-ynyl)cyclobutanecarboxamide]	stable (If % depletion after 6 hour incubation is less than 20%, compounds were reported as stable)
